Data on one molecule can be found in patent publication US20180049996A1, “THERAPEUTIC AGENT FOR CHRONIC RESPIRATORY DISEASE AND COMPOSITION FOR INHIBITING CARDIAC FIBROSIS” (NIPPON HYPOX LABORATORIES INCORPORATED, priority 2015, published 2018).

In one assay the test system is IL-6. Put plainly: IL-6 level in BAL fluid (ELISA), COPD model. Type of assay: in vivo, C57BL/6N mice. Conditions: HTHQ 10 and 20 mg/kg/day oral; tobacco smoke 10 days + LPS; compared to COPD model group. The protocol:
6 week old male SPF C57BL/6N mice, 20 to 25 g of body weight, were purchased from CORETEC INC. (South Korea).
The tests were conducted as follows. The mice in the COPD (chronic obstructive pulmonary disease) model group of the test groups were exposed to tobacco smoke for 1 hour per day (8 cigarettes/day) for 10 days and LPS (5 μg/50 μL/mouse) was intranasally administered to the mice on day 8 after the start of the tests. […]
The mice in the test groups were euthanized 72 hours after the LPS administration and the mice in the normal control group were euthanized on day 11 after the start of the tests by intraperitoneal injection of pentobarbital (Hanrimu pharmaceutical, South Korea) at 50 mg/kg and then the bronchi were excised. […] After preparing slide samples from 100 μL of BAL cell fluid using Cytospin (4° C., 1000 rpm×5 min), the cell numbers of inflammatory cells (neutrophil, macrophages) present in the BAL fluid were counted using a Diff-Quik stain kit.
The supernatant of the BAL fluid stored was taken out of the super-cryostat, and TNF-α and IL-6 levels were measured as the levels of pro-inflammatory cytokines in the supernatant. A quantitative ELISA kit (a product from Invitrogen) and an ELISA analyzer (a product from Molecular Devices, LLC.) were used for the measurement and the measurement wavelength was 450 nm.

Assay [1] concerns Creatine phosphokinase (CPK). Put plainly: Creatine phosphokinase (CPK) value in blood, myocardial disorder induced by doxorubicin. Type of assay: in vivo, female SD rats. Conditions: Test group 2: doxorubicin + HTHQ 50 mg/kg; day 14; p<0.05. The method, then:
Doxorubicin is used to produce disease-model animals of cardiomyopathy. The doxorubicin and 2,3,5-trimethylhydroquinone-1-hexyl ether (HTHQ) as the hydroquinone derivative represented by the general formula (1) described above of the present invention were simultaneously administered to female SD rats of 4 week old after birth to examine the effect of the action. The test groups consisted of the control group to which sterile saline was administered; test group 1 to which doxorubicin (13 mg/kg body weight) alone was administered; test group 2 to which doxorubicin (13 mg/kg body weight) and HTHQ (50 mg/kg body weight) were administered in combination; and test group 3 to which doxorubicin (13 mg/kg body weight), HTHQ (50 mg/kg body weight) and recombinant human erythropoietin (400 IU/kg body weight) were administered in combination. The recombinant human erythropoietin (rHuEPO) is mainly used in the treatment of renal anemia etc., and has the effect to protect myocardium. The test group 3 is used to confirm the presence or absence of the inhibitory effect brought about by combining HTHQ and rHuEPO on myocardial disorder.
Doxorubicin was orally administered in a single dose to the rats in test groups 1 to 3. […]

With `CCCCCCOc1cc(C)c(O)c(C)c1C` [HTHQ, 2,3,5-trimethylhydroquinone-1-hexyl ether], the “IL-6 level in BAL fluid” value in the assay on IL-6 is “significantly reduced”. Moreover, the “creatine phosphokinase (CPK) value” in assay [1] is “significantly lower compared to that of test group 1”.
